The values below come from US6372770B1, “Benzoxazoles” (Euro-Celtique, S.A., priority 1994, dated 2002).

Where a name gives a salt, the structure may show the parent alone.

A word on the IC50: it is the concentration needed to halve the response being measured. For orientation: inhibition means the percentage by which the read-out fell short of the control. Read a high inhibition as strong suppression.

Assay [1] deals with T1, PDE III (Homo sapiens, UniProt Q14432).
T1 construct: Fractions containing PDE III activity are pooled and dialyzed overnight; from tissue; host or cells: human platelets
As to the kind of experiment: Type III PDE inhibition, hydrolysis of [3H]-cyclic AMP. The assay is classed as biochemical. The note with it: for IC50: Type III PDE isolated from human platelets, 0.2 μM cyclic AMP. The procedure: The Type III PDE is isolated from human platelets using a procedure similar to that previously described by Washer, R. E. et al., Biochem. Pharmacol., 35:787, 1986. Briefly, 1-2 units of platelets are suspended in an equal volume of buffer (20 mM Tris-HCl, pH 7.5, containing 2 mM magnesium acetate, 1 mM dithiothreitol, and 5 mM Na2EDTA). The proteinase inhibitor phenylmethyl-sulfonyl fluoride (PMSF) is also included in this buffer at a final concentration of 200 μM. The suspension is homogenized using a polytron and the homogenate centrifuged at 100,000×g for 60 minutes. This and all subsequent procedures are performed at 0-4° C. The supernatant is then filtered through four layers of gauze and applied to a DEAE-Trisacryl M column, previously equilibrated with buffer B (20 mM Tris-HCl, pH 7.5, containing 1 mM magnesium acetate, 1 mM dithiothreitol and 200 μM PMSF). After application of the sample, the column is washed with several bed volumes of buffer B, after which the different forms of PDE are eluted from the column using two successive linear NaCl gradients (0.05-0.15 M, 300 ml total; 0.15-0.40 M, 200 ml total). Five ml fractions are collected and assayed for cyclic AMP and cyclic GMP PDE activity. Fractions containing PDE III activity are pooled and dialyzed overnight against 4 L of buffer B. The dialyzed PDE III is then concentrated to 10% of the original volume, diluted to 50% with ethylene glycol monoethyl ether and stored at −20° C. PDE III can typically be retained for up to four weeks with little or no loss of activity.
Enzyme activity is assessed by measuring the hydrolysis of [^3H]-cyclic AMP, as described by Thompson, W. J. et al., Adv. Cyclic Nucleotide Res. 10:69, 1979. The cyclic AMP concentration used in this assay is 0.2 μM, which approximates to the Km value. Protein concentration is adjusted to ensure that no more than 15% of the available substrate is hydrolyzed during the incubation period.
(§1) All test compounds are dissolved in dimethyl sulfoxide (final concentration of 2.5%). This concentration of dimethyl sulfoxide inhibits enzyme activity by approximately 10%.

For assay [2], the system named is T2, PDE IV.
T2 construct: PDE IV IC50; other: Type IV PDE isolated from bovine tracheal smooth muscle; rolipram run in the
As to the kind of experiment: Type IV PDE inhibition, hydrolysis of [3H]-cyclic AMP. The class given is biochemical, bovine. The note with it: Type IV PDE isolated from bovine tracheal smooth muscle; 0.2 μM cyclic AMP; read-out: PDE IV IC50.
Text: The PDE IV inhibitory compounds of the present invention may be examined for their PDE IV inhibitory effects via the techniques set forth in the following examples, wherein the ability of the compounds to inhibit PDE IV isolated from bovine tracheal smooth muscle is set forth.
The Type IV PDE is isolated from bovine tracheal smooth muscle using a procedure similar to that previously described by Silver, P. J. et al., Eur. J. Pharmacol. 150:85,1988.(1). Briefly, smooth muscle from bovine trachea is minced and homogenized using a polytron in 10 volumes of an extraction buffer containing 10 mM Tris-acetate (pH 7.5), 2 mM magnesium chloride, 1 mM dithiothreitol and 2,000 units/ml of aprotinin. This and all subsequent procedures are performed at 0-4° C. The homogenate is sonicated and then centrifuged at 48,000×g for 30 minutes. The resulting supernatant is applied to a DEAE Trisacryl M column previously equilibrated with sodium acetate and dithiothreitol. After applications of the sample, the column is washed with sodium acetate/dithiothreitol, after whlich the different forms of PDE are eluted from the column using a linear Tris-HCl/NaCl gradient. Fractions containing Type IV PDE are collected, dialyzed and concentrated to 14% of the original volume. The concentrated fractions are diluted to 50% with ethylene glycol and stored at −20° C.
Enzyme activity is assessed by measuring the hydrolysis of [^3H]-cyclic AMP, as described by Thompson, W. J. et al., Adv. Cyclic Nucleotide Res. 10:69, 1979. The cyclic AMP concentration used in this assay is 0.2 μM, which approximates the Km value. Protein concentration is adjusted to ensure that no more than 15% of the available substrate is hydrolyzed during the incubation period.
as §1

T1 sequence (Q14432 whole entry): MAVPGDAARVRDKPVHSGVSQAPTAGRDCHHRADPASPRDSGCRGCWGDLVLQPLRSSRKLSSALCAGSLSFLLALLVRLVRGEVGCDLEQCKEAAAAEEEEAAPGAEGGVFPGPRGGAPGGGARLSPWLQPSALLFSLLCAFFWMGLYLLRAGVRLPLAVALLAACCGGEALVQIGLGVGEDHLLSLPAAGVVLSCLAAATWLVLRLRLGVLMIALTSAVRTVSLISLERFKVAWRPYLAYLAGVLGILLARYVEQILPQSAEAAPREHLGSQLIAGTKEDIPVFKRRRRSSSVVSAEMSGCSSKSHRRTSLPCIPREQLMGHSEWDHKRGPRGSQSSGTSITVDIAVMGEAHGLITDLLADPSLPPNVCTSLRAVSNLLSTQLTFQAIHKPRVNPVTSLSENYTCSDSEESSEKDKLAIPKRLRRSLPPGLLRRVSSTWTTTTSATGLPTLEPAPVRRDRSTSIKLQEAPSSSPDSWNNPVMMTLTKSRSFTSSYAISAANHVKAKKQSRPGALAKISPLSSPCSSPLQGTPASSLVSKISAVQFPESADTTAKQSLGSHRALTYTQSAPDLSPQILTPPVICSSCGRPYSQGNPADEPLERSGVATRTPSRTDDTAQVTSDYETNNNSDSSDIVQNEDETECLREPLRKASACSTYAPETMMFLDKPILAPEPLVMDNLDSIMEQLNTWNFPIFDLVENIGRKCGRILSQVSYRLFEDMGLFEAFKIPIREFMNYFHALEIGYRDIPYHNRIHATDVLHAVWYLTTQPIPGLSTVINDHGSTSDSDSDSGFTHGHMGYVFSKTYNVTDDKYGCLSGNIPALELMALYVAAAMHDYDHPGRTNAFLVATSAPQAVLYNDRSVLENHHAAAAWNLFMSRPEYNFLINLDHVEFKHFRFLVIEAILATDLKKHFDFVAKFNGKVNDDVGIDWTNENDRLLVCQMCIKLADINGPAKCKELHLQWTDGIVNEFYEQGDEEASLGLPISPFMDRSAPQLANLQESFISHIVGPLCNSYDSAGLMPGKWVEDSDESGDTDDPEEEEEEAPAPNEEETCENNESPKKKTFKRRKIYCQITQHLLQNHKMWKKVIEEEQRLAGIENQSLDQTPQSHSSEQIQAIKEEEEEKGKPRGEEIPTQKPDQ

As for “2-(3-Cyclopentyloxy-4-methoxybenzyl)-5-chloro-7-(2-hydroxyethyl)benzoxazole Carbamate [Example 28]”, the IC50 in assay [1] was 36.8 µM; in assay [2] it was 0.7 µM.

As to “2-(3-cyclopentyloxy-4-methoxybenzyl)-5-chlorobenzoxazole-7-ethanal Oxime [Example 31]”, the concentration for half-maximal inhibition (IC50) is above 300 µM in assay [1] and 1.66 µM in assay [2].

`C=CCc1cc(Cl)cc2nc(Cc3ccc(OC)c(OC4CCCC4)c3)oc12` [Example 1, 7-Allyl-5-chloro-2-(3-cyclopentyloxy-4-methoxybenzyl)-benzoxazole]: the IC50 in assay [1] is above 300 µM. The inhibition at 10 µM in assay [1] (at 10 μM) is 22%.

Regarding `CC(C)(C)c1cc(Cc2nc3cc(Cl)cc(C#Cc4ccccn4)c3o2)cc(C(C)(C)C)c1O` [Example 2, 5-Chloro-2-(3,5-di-t-butyl-4-hydroxy-benzyl)-7(2-(2-pyridyl)-ethynyl)-benzoxazole], the IC50 in assay [2] came to 0.01 µM.

For `CC(C)(C)c1cc(Cc2nc3cc(Cl)cc(C#Cc4nccs4)c3o2)cc(C(C)(C)C)c1O` [Example 3, 5-Chloro-2-(3,5-di-t-butyl-4-hydroxy-benzyl)-7-(2-(2-thiazolyl)-ethynyl)-benzoxazole], the 50% inhibitory concentration (IC50) in assay [2] turned out to be 0.01 µM.

`COc1ccc(Cc2nc3cc(Cl)cc(Br)c3o2)cc1OC1CCCC1` [Example 4, 7-Bromo-5-chloro-2-(3-cyclopentyloxy-4-methoxybenzyl)-benzoxazole]: the IC50 in assay [1] stood at 7.4 µM; in assay [2] it was 25.1 µM.

Turning to `COc1ccc(Cc2nc3cccc([N+](=O)[O-])c3o2)cc1OC1CCCC1` [Example 6, 2-(3-Cyclopentyloxy-4-methoxybenzyl)-7-nitro-benzoxazole], the IC50 was 0.6 µM in assay [1] and 1.6 µM in assay [2].

For `COc1ccc(Cc2nc3c(O)cccc3o2)cc1OC1CCCC1` [Example 7, 2-(3-Cyclopentyloxy-4-methoxybenzyl)-4-hydroxy-benzoxazole], the IC50 in assay [1] was found to be 124 µM; in assay [2], 0.5 µM.

As to `COc1ccc(Cc2nc3c(OC(C)=O)cccc3o2)cc1OC1CCCC1` [Example 8, 4-Acetoxy-2-(3-cyclopentyloxy-4-methoxybenzyl)-benzoxazole], the values for the 50% inhibitory concentration (IC50) in assay [1] and in assay [2] were 158 µM and 0.75 µM, respectively.

As for `COc1ccc(Cc2nc3c(OCc4ccccn4)cccc3o2)cc1OC1CCCC1` [Example 10, 2-((3-Cyclopentyloxy-4-methoxy)benzyl)-4-(2-pyridylmethoxy)-benzoxazole Hydrochloride], the IC50 was above 300 µM in assay [1] and 0.53 µM in assay [2].

For `COc1ccc(Cc2nc3cccc(N)c3o2)cc1OC1CCCC1` [Example 13, 7-Amino-2-((3-Cyclopentyloxy-4-methoxy)benzyl)-benzoxazole Hydrochloride], the results for the IC50 in assay [1] and in assay [2] were 253 µM and 13.7 µM, respectively.

With `COc1ccc(Cc2nc3c(OC)cccc3o2)cc1OC1CCCC1` [Example 14, 2-((3-Cyclopentyloxy-4-methoxy)benzyl)-4-methoxy-benzoxazole], the half-maximal inhibitory concentration (IC50) in assay [1] was 49.2 µM; in assay [2] it was 1.99 µM.

`COc1ccc(Cc2nc3cccc(NC(=O)c4cccnc4)c3o2)cc1OC1CCCC1` [Example 15, 2-((3-Cyclopentyloxy-4-methoxy)benzyl)-7-(nicotinoyl-amino)-benzoxazole]: the IC50 in assay [1] came out at 177 µM; in assay [2] it was 4.79 µM.

Consider `COc1ccc(Cc2nc3cccc(NC(=O)c4ccncc4)c3o2)cc1OC1CCCC1` [Example 16, 2-((3-Cyclopentyloxy-4-methoxy)benzyl)-7-(isonicotinoyl-amino)-benzoxazole Hydrochloride], for which the concentration for half-maximal inhibition (IC50) in assay [1] was 43.9 µM; in assay [2] it was 6.03 µM.

Regarding `COc1ccc(Cc2nc3cccc(NC(=O)c4ccccn4)c3o2)cc1OC1CCCC1` [Example 17, 2-((3-Cyclopentyloxy-4-methoxy)benzyl)-7-(2-pyridine-carbonylamino)-benzoxazole], the IC50 in assay [1] was found to be 121 µM; in assay [2] it was 0.76 µM.

Take `CC(C)(C)c1cc(Cc2nc3cccc(C#Cc4ccccn4)c3o2)cc(C(C)(C)C)c1O` [Example 22]: the IC50 in assay [2] was determined as 0.07 µM.
